Test results: publication PMC11188874, “HDAC6 Inhibition Releases HR23B to Activate Proteasomes, Expand the Tumor Immunopeptidome and Amplify T-cell Antimyeloma Activity” (Cancer Research Communications, 2024)

Key:
[1] = test system: proteasome ChT-like activity in RPMI-8226 cells; test: Cell-based high-throughput screen of proteasome ChT-like activity (LLVY-R110); design: species or system human; settings: 3 µmol/L, 21 hours, then LLVY-R110 18 hours
E.G7-Ova cells [2] = test: Quantitation of […]–MHC-I complex by flow cytometry; assay type: cell-based, mouse
RPMI-8226 cells = test: Myeloma MHC-I immunopeptidome analysis by MS; assay type: cell-based, human
RPMI8226 cells [3] = test: Aggresome formation (Proteostat kit, flow cytometry); assay type: cell-based, human; settings: 16 h
RPMI8226 cells [4] = test: Autophagosome formation (Cyto-ID kit, flow cytometry); assay type: cell-based, human; settings: 16 h
MMCLs = test: pan-HLA-ABC presentation in MMCLs by flow cytometry; assay type: cell-based, human; settings: pan-HLA ABC antibody
SIRT2 = molecular target: T1, SIRT2 (Homo sapiens, UniProt Q8IXJ6); test: In vitro biochemical activity assay, SIRT2; settings: 10-dose, 3-fold serial dilution; fluorogenic peptide p53 residues 379-382 and NAD
T1 construct: purchased Reaction Biology (Malvern, PA)
T1 sequence (Q8IXJ6 1-389): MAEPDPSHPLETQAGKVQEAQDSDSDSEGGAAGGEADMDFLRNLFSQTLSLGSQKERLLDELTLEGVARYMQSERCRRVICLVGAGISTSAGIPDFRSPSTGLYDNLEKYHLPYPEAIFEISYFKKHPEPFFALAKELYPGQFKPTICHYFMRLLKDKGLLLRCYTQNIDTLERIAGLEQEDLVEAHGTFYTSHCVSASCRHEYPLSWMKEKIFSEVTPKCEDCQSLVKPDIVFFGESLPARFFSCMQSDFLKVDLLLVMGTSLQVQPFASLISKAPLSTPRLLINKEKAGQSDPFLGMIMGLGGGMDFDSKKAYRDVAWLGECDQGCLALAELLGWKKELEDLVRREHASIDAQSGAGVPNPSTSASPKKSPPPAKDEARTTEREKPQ

[5] = Cell viability, XTT assay; assay type: cell-based; settings: human, RPMI-8226 multiple myeloma cells, RPMI-8226 cells, XTT (Fig. 1C, 1D), read-out: cell viability maintained
Protocol: Cell viability was determined using the XTT assay ([23]). Briefly, 50,000 cells were added to 96-well plates in a volume of 250 µL in RPMI media that lacked phenol red. Drugs were added at indicated concentrations and plates incubated under standard conditions for 72 hours. XTT sodium salt tetrazolium reagent (Gold Biotechnology, catalog no. X-200) was diluted in PBS (1 mg/mL) containing phenazine methosulfate (PMS, 7.5 µg/mL). Cells were incubated with the XTT+PMS reagent for 3 hours at 37°C and absorbance was measured at 450 nm using a Molecular Devices i3x Spectramax plate reader.

HDAC10 = molecular target: T2, HDAC10 (Homo sapiens, UniProt Q969S8); test: In vitro biochemical activity assay, HDAC10; settings: at higher concentrations
T2 construct: purchased Reaction Biology (Malvern, PA)
T2 sequence (Q969S8 1-669): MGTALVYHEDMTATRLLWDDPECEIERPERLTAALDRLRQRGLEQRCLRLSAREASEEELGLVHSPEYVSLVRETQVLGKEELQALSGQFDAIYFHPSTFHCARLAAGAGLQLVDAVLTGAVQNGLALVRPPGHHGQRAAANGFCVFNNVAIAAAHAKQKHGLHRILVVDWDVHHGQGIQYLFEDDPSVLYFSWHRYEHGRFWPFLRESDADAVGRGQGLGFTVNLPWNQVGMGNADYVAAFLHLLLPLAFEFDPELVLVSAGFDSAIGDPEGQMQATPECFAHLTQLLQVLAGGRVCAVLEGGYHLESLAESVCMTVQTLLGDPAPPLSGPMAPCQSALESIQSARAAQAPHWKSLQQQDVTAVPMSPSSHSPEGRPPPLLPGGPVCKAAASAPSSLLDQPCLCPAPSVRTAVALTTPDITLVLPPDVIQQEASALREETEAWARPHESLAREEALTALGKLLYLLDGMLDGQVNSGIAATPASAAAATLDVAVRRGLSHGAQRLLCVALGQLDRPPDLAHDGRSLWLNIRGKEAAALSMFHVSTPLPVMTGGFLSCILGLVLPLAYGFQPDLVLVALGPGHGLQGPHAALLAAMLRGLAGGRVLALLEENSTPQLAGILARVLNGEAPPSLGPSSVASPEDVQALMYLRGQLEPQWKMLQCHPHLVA

E.G7-Ova cells [6] = test: B3Z T-cell hybridoma assay, annexin-V/propidium iodide; assay type: cell-based, mouse; settings: pretreatment 1 µmol/L 72 hours, E:T 2:1 (Fig. 2C)
E.G7-Ova cells [7] = test: Murine MHC-I immunopeptidome analysis by MS; assay type: cell-based, mouse; settings: 1 µmol/L, 72 hours
27 cancer cell lines [8] = settings: 1 µmol/L, 72 hours
27 cancer cell lines [9] = test: Proteasome activity in a panel of cancer cell lines (LLVY-R110); settings: 1 µmol/L, 72 hours
[10] = test system: proteasome ChT-like activity in MMCLs; test: Proteasome ChT-like activity in cultured multiple myeloma cells (LLVY-R110); settings: RPMI-8226 cells, 1 µmol/L, 72 hours (Fig. 1B, 1D)

Compound: CC(C)C[C@H](NC(=O)[C@H](Cc1ccccc1)NC(=O)c1cnccn1)B(O)O [Bortezomib]
- Fold-Decrease of proteasome ChT-like activity in the HTS [1]: 4 fold
- SIINFEKL–MHC-I complex presentation (in words) (E.G7-Ova cells [2]): reduced
- global peak intensity of peptides (in words) (RPMI-8226 cells; BTZ, 18 hours): slightly decreased
- number of peptides decreased by at least 20-fold (RPMI-8226 cells; BTZ, 18 hours): seven
- number of peptides with 2-fold or greater decrease (RPMI-8226 cells; BTZ, 18 hours): 1,707 peptides
- formation of aggresomes (RPMI8226 cells [3]): increased
- formation of autophagosomes (RPMI8226 cells [4]): increased

Compound: COc1ccccc1CN(C)C(=O)Cn1c(CCC(=O)O)nc2c(Cl)cccc2c1=O [SGC-UBD253N]
- SIINFEKL–MHC-I complex presentation (in words) (E.G7-Ova cells [2]): not changed
- pan-MHC-I presentation on MMCLs (MMCLs): did not increase

Compound: COc1ccccc1CNC(=O)Cn1c(CCC(=O)O)nc2c(Cl)cccc2c1=O [SGC-UBD253]
- SIINFEKL–MHC-I complex presentation (in words) (E.G7-Ova cells [2]): increased
- pan-MHC-I presentation on MMCLs (MMCLs): increased pan-MHC-I presentation in a dose-dependent manner

Compound: Cc1ccc(C(=O)Nc2ccc(S(=O)(=O)O)c3cc(S(=O)(=O)O)cc(S(=O)(=O)O)c23)cc1NC(=O)c1cccc(NC(=O)Nc2cccc(C(=O)Nc3cc(C(=O)Nc4ccc(S(=O)(=O)O)c5cc(S(=O)(=O)O)cc(S(=O)(=O)O)c45)ccc3C)c2)c1 [Suramin]
- IC50 (SIRT2): 24.3 µM

Compound: CN1CCc2c(c3ccccc3n2Cc2ccc(C(=O)NO)cc2)C1 [Tubastatin-A]
- viability at 16 h, 1 µmol/L [5]: ≥ 75%
- effect on HDAC10 biochemical activity (HDAC10): inhibited
- increase in presentation of the class I molecule–SIINFEKL complex (E.G7-Ova cells [2]; normalized to untreated (Fig. 2A)): over 3 fold
- number of CD8neg/annexin-V+/propidium iodide+ E.G7-Ova cells after coculture with B3Z cells (E.G7-Ova cells [6]): significantly increased
- peak area of SIINFEKL compared with untreated (E.G7-Ova cells [7]): 1.5 fold
- global peak intensity of peptides (RPMI-8226 cells; 1 µmol/L, 72 hours): approximately 2 fold
- Number of Cell Lines: Increased Class I Presentation (27 cancer cell lines [8]): 19 cell lines
- Number of Cell Lines: Increased Proteasome Activity (27 cancer cell lines [9]): 17 cell lines
- Number of Cell Lines: Both Increased (27 cancer cell lines [9]; proteasome activity and class I presentation): 16 cell lines
- increase in proteasome activity [10]: ≥ 30%
